From US9150530B2, “Esters of 4, 9-dihydroxy-naphtho [2, 3-b] furans for disease therapies” (Zhoushan Haizhongzhou Xinsheng Pharmaceuticals Co., Ltd., priority 2011, dated 2015)

Legend:
DU-145 = assay: Cell viability determination (MTT), DU-145; assay type: cell-based; details: Homo sapiens, DU-145, prostate cancer, 48 hour incubation, read-out: Drug concentrations for 50% cell viability (IC50)
Excerpt: (§1) Cell Culture: A549, DLD1, SW480, LOVO, HT-29, Hela, U-20S, MES-SA, SK-MEL-28, Panc-1, DU-145, CNE, U251, Eca-109, MGC80-3, QGY-7701, BEL-7404, PLC/PRF/5, Huh-7, and SGC-7901 cells were maintained in Dulbecco's Modified Eagle Medium (DMEM) (imported from Invitrogen, Carlsbad, Calif., USA) supplemented with 10% fetal bovine serum (FBS) (Si Ji Qing, Hangzhou, China) and 1% penicillin/streptomycin/amphotericin B (imported from Invitrogen, Carlsbad, Calif., USA).
(§2) Cell Viability Determination: Popular MTT method (Archives of Biochemistry and Biophysics, 1993, 303: 474-482) was used to screen the in vitro effects of the invented drugs. Briefly, 5000 to 10000 cells were inoculated per well in a 96-well plate. After overnight incubation, drug was added to the wells at final concentration of 10 μM, […], 2.5 μM, 1.25 μM, or 1 μM, 0.75 μM, 0.5 μM and 0.25 μM in complete culture medium. Each dose level covered 4 equivalent wells. After 48 hour incubation, one tenth volume of 5 mg/mL MTT (thiazolyl blue tetrazolium bromide, Sigma-Aldrich) stock solution was added, and incubation was continued for 2 hours. Then medium was removed and 100 μL of isopropanol solution comprising 86% isopropanol, 4% aqueous 1 N HCl and 10% aqueous SDS solution (10% in concentration) was added. The absorbance of each well at 570 nm wavelength was measured by a micro-plate reader after gentle shaking for 20 minutes. Drug concentrations of 50% cell viability (IC50) were calculated by LOGIT method.

Hela = assay: Cell viability determination (MTT), Hela; assay type: cell-based; details: Homo sapiens, cervical cancer, 48 hour incubation, read-out: Drug concentrations for 50% cell viability (IC50)
Excerpt: as §1, §2

[1] = Human plasma incubation, HPLC analysis of degradation products; assay type: in vitro ADME; details: 20 μM in human plasma, 37° C., 2 hours
Method: The compounds of formula I were incubated in human plasma at 37° C. for 2 hours, and then the mixtures were treated with acetonitrile to remove protein and the resulting supernatants were analyzed by HPLC (FIG. 2). […] Without wishing to be bound by a particular theory, it is believed that, although not detected due to instability in a protein-free environment, the direct hydrolysis product of a compound of formula I, 4,9-dihydroxy-naphtho[2,3-b]furan, and its partially oxidized product semihydroquinone (shown in scheme 6) co-exist in vivo and play important biological roles.
HPLC column: Waters Sunfire C18, 250×4.60 mm 5 micron; Mobile phase: buffer A, 90% 5 mM potassium phosphate buffer, pH 6.8, 10% acetonitrile; buffer B, 15% 5 mM potassium phosphate buffer, pH 6.8, 85% acetonitrile; Detector: Waters 2998 Photodiode Array Detector.
Gradient B: 0-3 min, 50% buffer B, 3-5 min, 50%-100% buffer B, 5-18 min, 100% buffer B, 18-22 min, 100%-50% buffer B, 22-25 min, […]; flow rate, 1 ml/min. Analysis of the 4,9-dihydroxy-naphtho[2,3-b]furan compounds (FIG. 1)
10 mM of a compound of formula I or its analog in DMSO (however, compound VI was in DMF) was diluted with human plasma to 20 μM, and the resulting mixtures were incubated at 37° C. for 2 hours. To plasma sample, 9 times volume of acetonitrile was added. The resulting mixtures were vortexed and incubated in dry ice for 30 minutes or in −20° C. freezer for 3 hours, then centrifuged, and supernatant was used for HPLC analysis using gradient B.

DLD1 [2] = assay: Effect of NQ01 inhibitor (dicumarol) on biological activity, MTT, DLD1; assay type: cell-based; details: DLD1 (significant NQ01 enzymatic activity); dicumarol 40 μM; 48 hr
Method: as §2
(§3) Effect of NQ01 Inhibitor (Dicumarol) on the Biological Activities of 2-acetyl-4,9-diacetoxy-naphtho[2,3-b]furan and Compound XIII (Part B and C of FIG. 4):MTT assay was used for this experiment. Same procedure as described in “Cell Viability Determination” section. […] The viability of cells at each well was read out after 48 hr incubation in cell culture incubator.

SW480 = assay: Cell viability determination (MTT), SW480; assay type: cell-based; details: Homo sapiens, SW480, colorectal cancer, 48 hour incubation, read-out: Drug concentrations for 50% cell viability (IC50)
Excerpt: as §1, §2

SK-MEL-28 = assay: Cell viability determination (MTT), SK-MEL-28; assay type: cell-based; details: Homo sapiens, SK-MEL-28, malignant melanoma, 48 hour incubation, read-out: Drug concentrations for 50% cell viability (IC50)
Excerpt: as §1, §2

CNE = assay: Cell viability determination (MTT), CNE; assay type: cell-based; details: Homo sapiens, nasopharyngeal cancer, 48 hour incubation, read-out: Drug concentrations for 50% cell viability (IC50)
Excerpt: as §1, §2

Eca-109 = assay: Cell viability determination (MTT), Eca-109; assay type: cell-based; details: Homo sapiens, Eca-109, esophageal cancer, 48 hour incubation, read-out: Drug concentrations for 50% cell viability (IC50)
Excerpt: as §1, §2

MES-SA = assay: Cell viability determination (MTT), MES-SA; assay type: cell-based; details: Homo sapiens, leiomyosarcoma, 48 hour incubation, read-out: Drug concentrations for 50% cell viability (IC50)
Excerpt: as §1, §2

U251 = assay: Cell viability determination (MTT), U251; assay type: cell-based; details: Homo sapiens, U-251, U251, glioma, 48 hour incubation, read-out: Drug concentrations for 50% cell viability (IC50)
Excerpt: as §1, §2

Panc-1 [3] = assay: Effect of NQ01 inhibitor (dicumarol) on biological activity, MTT, Panc-1; assay type: cell-based; details: Panc-1 (no significant NQ01 enzymatic activity); dicumarol 40 μM; 48 hr
Method: as §2, §3

LOVO = assay: Cell viability determination (MTT), LOVO; assay type: cell-based; details: Homo sapiens, colorectal cancer, 48 hour incubation, read-out: Drug concentrations for 50% cell viability (IC50)
Excerpt: as §1, §2

Panc-1 [4] = assay: Cell viability determination (MTT), Panc-1; assay type: cell-based; details: Homo sapiens, Panc-1, pancreatic cancer, 48 hour incubation, read-out: Drug concentrations for 50% cell viability (IC50)
Excerpt: as §1, §2

DLD1 [5] = assay: Cell viability determination (MTT), DLD1; assay type: cell-based; details: Homo sapiens, DLD-1, DLD1, colorectal cancer, 48 hour incubation, read-out: Drug concentrations for 50% cell viability (IC50)
Excerpt: as §1, §2

U-20S = assay: Cell viability determination (MTT), U-20S; assay type: cell-based; details: osteosarcoma, 48 hour incubation, read-out: Drug concentrations for 50% cell viability (IC50)
Excerpt: as §1, §2

A549 = assay: Cell viability determination (MTT), A549; assay type: cell-based; details: Homo sapiens, A549, lung cancer, 48 hour incubation, read-out: Drug concentrations for 50% cell viability (IC50)
Excerpt: as §1, §2

QGY-7701 = assay: Cell viability determination (MTT), QGY-7701; assay type: cell-based; details: QGY7701, QGY-7701, liver cancer, 48 hour incubation, read-out: Drug concentrations for 50% cell viability (IC50)
Excerpt: as §1, §2

MGC80-3 = assay: Cell viability determination (MTT), MGC80-3; assay type: cell-based; details: Homo sapiens, MGC-803, MGC80-3, stomach cancer, 48 hour incubation, read-out: Drug concentrations for 50% cell viability (IC50)
Excerpt: as §1, §2

[6] = Metabolism in biological fluid (human whole blood, cancer cell lysate, liver microsomes, mouse oral uptake), HPLC; assay type: in vitro ADME; details: liver microsomes or mouse oral uptake system, 20 μM, 37° C.
Method: Second, a major metabolite found after incubation of compound I, III, IV, VI or XIII in biological fluid, such as human whole blood, or cancer cell lysate, or liver microsomes, or mouse oral uptake system, is compound XII (FIG. 3). Similarly, a major metabolite found after incubation of compound V, VII or XIV in biological fluid is 2-(1-hydroxy-n-propyl)-naphtho[2,3-b]furan-4,9-dione (data not shown). Reduction of the position 2 substituent carbonyl group is part of quinone redox reaction as evidenced by the β-lapachone effect on the formation of compound XII in the compound XIII incubation mixture of human whole blood (part D of FIG. 3). The possible reaction mechanism is proposed as shown in scheme 7, in which the two electron reduction could be NQ01 catalyzed reduction or two successive cytochrome b5 reductase or p450 reductase catalyzed reaction. As substrate of these enzymes, β-lapachone could compete for the two electron or single electron reaction and thus reduced formation of the metabolism product.
Crystalline or amorphous solid of compound was mixed with excipient and suspended in 0.5% carboxymethylcellulose (CMC) solution in a mortar. Then the mixture was orally administered into ICR mouse at the predetermined dosage. At the predetermined time point, blood was drawn from the mouse and stored in the vial containing heparin. The blood samples were centrifuged at 6,000 rpm for 10 min, and plasmas were separated. To each plasma sample, 9 times volume of acetonitrile/methyl trifluoromethanesulfonate (1000:1) or acetonitrile/concentrated HCl (1000:1) was added. The resulting mixtures were vortexed and incubated in dry ice for 30 minutes or in −20° C. freezer for 3 hours, then centrifuged, and supernatants were separated for HPLC analysis using gradient B.
The biological systems for in vitro metabolism study include: human whole blood stabilized with sodium citrate; cancer cell lysate (obtained using freeze-thaw method, 10 mg/ml in protein concentration for use); liver microsomes with NADPH generation system (prepared according to the protocol provided by iPhase Pharma, Beijing, China);
10 mM of a compound of formula I or its analog or compound XIII in DMSO (however, compound VI was in DMF) was added into the biological system to a final concentration of 20 μM. The mixtures were incubated at 37° C. for predetermined time. To each sample, then 9 times volume of acetonitrile was added. The resulting mixtures were vortexed and incubated in dry ice for 30 minutes or in −20° C. freezer for 3 hours, then centrifuged, and supernatants were separated for HPLC analysis using gradient B.

SMILES: CC(=O)Oc1c2ccccc2c(OC(C)=O)c2oc(C(C)=O)cc12 [2-acetyl-4,9-bis(acetoxy)-naphtho[2,3-b]furan, reference compound]
- IC50 (DU-145): 1000 nM
- IC50 (Hela): 1200 nM
- Degradation / detectable products after incubation in human plasma [1]: the only detectable product was compound XIII
- Dicumarol effect on anticancer activity (DLD1 [2]): dicumarol attenuates anticancer activities
- IC50 (SW480): 860 nM
- IC50 (SK-MEL-28): 300 nM
- IC50 (CNE): 1500 nM
- IC50 (Eca-109): 1400 nM
- IC50 (MES-SA): 600 nM
- IC50 (U251): 1080 nM
- Dicumarol effect on anticancer activity (Panc-1 [3]): dicumarol showed little effect
- IC50 (LOVO): 1100 nM
- IC50 (Panc-1 [4]): 1500 nM
- IC50 (DLD1 [5]): 1800 nM
- IC50 (U-20S): 1000 nM
- IC50 (A549): 1700 nM

SMILES: CC(=O)c1cc2c(OC(=O)C(C)C)c3ccccc3c(OC(=O)C(C)C)c2o1 [compound I]
- IC50 (QGY-7701): 2870 nM
- IC50 (DU-145): < 2500 nM
- IC50 (MGC80-3): 2500 nM
- Major metabolite found after incubation in biological fluid [6]: compound XII
- IC50 (Hela): < 2500 nM
- Degradation / detectable products after incubation in human plasma [1]: the detectable products were compound XIII and partially degraded products
- IC50 (SW480): < 2500 nM
- IC50 (CNE): 2500 nM
- IC50 (Eca-109): 5500 nM
- IC50 (MES-SA): < 2500 nM
- IC50 (U251): < 2500 nM
- IC50 (LOVO): 2800 nM
- IC50 (Panc-1 [4]): < 2500 nM
- IC50 (DLD1 [5]): < 2500 nM
- IC50 (U-20S): 5700 nM
- IC50 (A549): < 2500 nM

SMILES: CC(=O)c1cc2c(OC(=O)C(Cl)Cl)c3ccccc3c(OC(=O)C(Cl)Cl)c2o1 [compound VI, 2-acetyl-4,9-Bis(dichloroacetoxy)-naphtho[2,3-b]furan]
- IC50 (DU-145): 1000 nM
- IC50 (MGC80-3): 600 nM
- Major metabolite found after incubation in biological fluid [6]: compound XII
- IC50 (Hela): 400 nM
- IC50 (SW480): 600 nM
- IC50 (CNE): 1100 nM
- IC50 (Eca-109): 800 nM
- IC50 (MES-SA): 270 nM
- IC50 (U251): 700 nM
- IC50 (LOVO): 1500 nM
- IC50 (Panc-1 [4]): 1000 nM
- IC50 (DLD1 [5]): 900 nM
- IC50 (U-20S): 800 nM
- IC50 (A549): 400 nM

SMILES: CC(=O)c1cc2c(OC(=O)C(C)(C)C)c3ccccc3c(OC(=O)C(C)(C)C)c2o1 [compound II, 2-acetyl-4,9-Bis(pivaloxy)-naphtho[2,3-b]furan]
- Degradation / detectable products after incubation in human plasma [1]: barely degraded
- IC50 (SW480): > 4000 nM
- IC50 (Eca-109): > 4000 nM
- IC50 (LOVO): > 4000 nM
- IC50 (Panc-1 [4]): 3000 nM
- IC50 (DLD1 [5]): > 4000 nM

SMILES: CC(=O)c1cc2c(O)c3ccccc3c(OC(=O)CNC(=O)OC(C)(C)C)c2o1 [compound III, 2-acetyl-4-hydroxy-9-[(tert-butoxycarbonyl)amino]acetoxy-naphtho[2,3-b]furan]
- IC50 (QGY-7701): 4800 nM
- IC50 (DU-145): 1250 to 2500 nM
- IC50 (MGC80-3): 1650 nM
- Major metabolite found after incubation in biological fluid [6]: compound XII
- IC50 (Hela): 1250 to 2500 nM
- IC50 (SW480): 1550 nM
- IC50 (SK-MEL-28): 890 nM
- IC50 (CNE): 1870 nM
- IC50 (Eca-109): 2550 nM
- IC50 (MES-SA): 470 nM
- IC50 (U251): 2070 nM
- IC50 (LOVO): 3100 nM
- IC50 (Panc-1 [4]): 1770 nM
- IC50 (DLD1 [5]): 1030 nM
- IC50 (U-20S): 2500 to 5000 nM
- IC50 (A549): 1250 to 2500 nM
